Series [1] deals with ec302 (TEM-10). Put plainly: Tigemonam potentiation (MPC@4), ec302. It counts as cell-based.
The next series relates to KP1004 (KPC-2). Description: Biapenem potentiation (MPC@1), KP1004. To be noted: BLI with biapenem at 1 μg/mL.
In a further series the test system is KP1005 (CTX-M-14). Put plainly: Tigemonam potentiation (MPC@4), KP1005. To be noted: BLI with tigemonam at 4 μg/mL. It is filed as cell-based.
For a further series, the target named is OXA-48 (Klebsiella pneumoniae, UniProt Q6XEC0). Description: Ki, nitrocefin cleavage by purified enzyme, OXA-48. It is filed as biochemical. The following applies: nitrocefin reporter substrate; read-out: Ki (OXA-48, NCF). On the procedure:
(§1) Purified enzymes were mixed with various concentrations of inhibitors in reaction buffer and incubated for 10 min at room temperature. Nitrocefin was added and substrate cleavage profiles were recorded at 490 nm every 10 sec for 10 min.

Series [2] deals with EC1010 (CMY-6). Put plainly: Tigemonam potentiation (MPC@4), EC1010. It is filed as cell-based. The following applies: BLI with tigemonam at 4 μg/mL.
The subject of the next series is KP1010 (SHV-12). Put plainly: Tigemonam potentiation (MPC@4), KP1010. It counts as cell-based.
In a further series the test system is KP1086 (OXA-48). Description: Biapenem potentiation (MPC@1), KP1086. To be noted: BLI with biapenem at 1 μg/mL.
Series [3] relates to ec302 (TEM-10). Description: Aztreonam potentiation (MPC@4), ec302. It counts as cell-based. To be noted: BLI with aztreonam at 4 μg/mL.
Series [4] can be described thus: Monomer content of pH adjusted aqueous solutions (LC-UV). It counts as physicochemical. The following applies: 1 mg/mL aqueous salt solution, pH adjusted to 7.6 to 8, LC-UV. Here is the method: Boronic acid containing compounds are known to undergo oligomerization. The presence of oligomers can greatly complicate drug development, as they represent new chemical species whose content must be controlled and qualified by testing in toxoicology studies. The monomer content of compounds was evaluated by adjusting aqueous solutions to physiological pH at various concentrations. The monomer content of pH adjusted solutions was measured using LC-UV. Test compounds were weighed out into a 1.5 mL Eppendorf tube. A solution of water was prepared in 1.00 mg/mL, 10.0 mg/mL or 100 mg/mL concentrations of the compound based on active fraction. A volume 20 uL was subtracted to allow room for addition of acid or base to adjust pH. The solution pH was measured. The pH was then adjusted through addition of acid or base as necessary until the reading was in the 7.6 to 8 range. A final pH measurement was made after ensuring all the compound was in solution. The solution was injected onto LC-UV in 0.1 uL to 5 uL volume within less than half an hour after the time the sample was prepared. Elution was done using 0.1% TFA in water for mobile phase A and 0.085% TFA in methanol for mobile phase B on an Excel ACE 5 Super C18 2.1×100 mm column at 0.6 ml/min flow rate with 9 min gradient, 3.9 minute hold at 90% B and 18 minute run time. The absorption was measured at 220, 254 and 300 nm with a 4 nm bandwidth.

Series [5] deals with ECL1002. Description: Tigemonam potentiation (MPC@4), ECL1002. It counts as cell-based. The following applies: BLI with tigemonam at 4 μg/mL.
Series [6] concerns ECL1002. Put plainly: Aztreonam potentiation (MPC@4), ECL1002. It counts as cell-based. The following applies: BLI with aztreonam at 4 μg/mL.
For a further series, the system named is KP1009 (CTX-M-15). Description: Tigemonam potentiation (MPC@4), KP1009. It is filed as cell-based. The following applies: BLI with tigemonam at 4 μg/mL.
The target of another series is P99 (Enterobacter cloacae, UniProt P05364). Description: Ki, nitrocefin cleavage by purified enzyme, P99. It counts as biochemical. The following applies: nitrocefin reporter substrate; read-out: Ki (P99, NCF). Here is the method:
as §1

Another series deals with SHV-12 (Klebsiella pneumoniae, UniProt P0AD64, E235K/G234S/L31Q). Put plainly: Ki, nitrocefin cleavage by purified enzyme, SHV-12. It is filed as biochemical. To be noted: nitrocefin reporter substrate; read-out: Ki (SHV-12, NCF). Here is the method: as §1
SHV-12, sequence (P0AD64 22-286 L31Q/G234S/E235K): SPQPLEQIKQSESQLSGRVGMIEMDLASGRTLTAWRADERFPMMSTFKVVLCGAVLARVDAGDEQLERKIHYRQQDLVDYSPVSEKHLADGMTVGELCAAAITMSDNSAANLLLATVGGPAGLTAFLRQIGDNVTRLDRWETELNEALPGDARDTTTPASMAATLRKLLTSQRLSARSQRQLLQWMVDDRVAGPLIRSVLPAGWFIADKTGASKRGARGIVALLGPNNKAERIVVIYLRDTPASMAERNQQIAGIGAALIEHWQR
The target in the next series is CTX-M-14 (Escherichia coli, UniProt Q9L5C7). Description: Ki, nitrocefin cleavage by purified enzyme, CTX-M-14. It counts as biochemical. The following applies: nitrocefin reporter substrate; read-out: Ki (CTX-M-14, NCF). Here is the method:
as §1

Series [7] has as its system EC1010 (CMY-6). Description: organism not typed. It counts as cell-based.
The next series deals with ec308 (SHV-5). Description: Tigemonam potentiation (MPC@4), ec308. It counts as cell-based.
The target of a further series is KPC-2 (Klebsiella pneumoniae, UniProt Q9F663). Put plainly: Ki, nitrocefin cleavage by purified enzyme, KPC-2. It is filed as biochemical. To be noted: nitrocefin reporter substrate; read-out: Ki (KPC-2, NCF). On the procedure: as §1
KPC-2, sequence (Q9F663 25-293, looked up, species assumed): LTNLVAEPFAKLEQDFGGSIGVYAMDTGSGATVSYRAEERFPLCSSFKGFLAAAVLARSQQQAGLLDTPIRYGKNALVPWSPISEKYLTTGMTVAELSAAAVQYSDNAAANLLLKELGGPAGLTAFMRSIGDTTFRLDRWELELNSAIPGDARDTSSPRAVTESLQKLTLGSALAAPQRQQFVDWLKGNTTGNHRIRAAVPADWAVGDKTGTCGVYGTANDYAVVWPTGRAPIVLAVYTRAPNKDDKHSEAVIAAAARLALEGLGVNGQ
Series [8] in a line: Serum stability of prodrugs, rat serum. The following applies: theoretical initial conc. 20 ug/mL; for Measured Initial Conc. in Serum: 37 degrees; for Conc. at t = 1 hr / Conc. at t = 3 hr: prodrug. It is filed as in vitro ADME. On the procedure:
(§2) Prodrug strategy is one of the ways to achieve or increase oral bioavailability for therapeutic drugs. […] After a prodrug molecule is absorbed into systemic circulation, it should be hydrolyzed in the blood in order to release the active form. Hydrolysis of several prodrugs by rat and human serum were evaluated.
(§3) For all stability experiments the test compounds were treated with rat or human serum in Eppendorf tubes. Typically, 992 μl of serum was prewarmed at 37 degrees for 2 minutes and then 8 μl of a compound (at 5 mg/ml, 125×) was added to it to get a final concentration of […] and immediately mixed. Alternatively, serum stability might be tested at 1 mg/ml. […] After vortexing for 30 seconds, the tube was centrifuged in a microcentrifuge for 10 minutes at 15K rpm. Next, 100 μl of the supernatant was combined with 600 μl of water and injected on LC-MS using 0.1% formic acid in water for mobile phase A and 0.1% formic acid in methanol for mobile phase B on an ACE 5 C18 2.1×100 mm column with a 10 μL injection. The flow rate and gradient were adjusted as needed to give the desired resolution and run time. The pH of the mobile phase was adjusted if needed to improve the chromatography.
(§4) The time course of both the disappearance of a prodrug and the appearance of the active form of that prodrug is presented in Table 6 and Table 7. The active metabolites for all of the listed prodrugs are corresponding parent drugs

A short description of series [9]: Serum stability of prodrugs, human serum. To be noted: theoretical initial conc. 20 ug/mL; for Measured Initial Conc. in Serum: 37 degrees; for Conc. at t = 1 hr: prodrug. It is filed as in vitro ADME.
The nature of series [10]: Serum stability of prodrugs, human serum. To be noted: human serum; prodrug; theoretical initial conc. 20 ug/mL. It counts as in vitro ADME. On the procedure:
as §2, §3, §4

Results on six compounds are retold here after patent US9963467B2, “Boronic acid derivatives and therapeutic uses thereof” (Rempex Pharmaceuticals, Inc., priority 2014, dated 2018).

OXA-48, sequence (Q6XEC0 23-265, looked up, species assumed): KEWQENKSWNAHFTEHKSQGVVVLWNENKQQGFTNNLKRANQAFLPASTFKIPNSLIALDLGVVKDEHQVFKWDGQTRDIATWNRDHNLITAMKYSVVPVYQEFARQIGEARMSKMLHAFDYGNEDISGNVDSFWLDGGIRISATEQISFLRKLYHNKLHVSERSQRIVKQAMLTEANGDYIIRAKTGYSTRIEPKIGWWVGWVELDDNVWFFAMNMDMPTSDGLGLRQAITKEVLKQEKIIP
CTX-M-14, sequence (Q9L5C7 29-291): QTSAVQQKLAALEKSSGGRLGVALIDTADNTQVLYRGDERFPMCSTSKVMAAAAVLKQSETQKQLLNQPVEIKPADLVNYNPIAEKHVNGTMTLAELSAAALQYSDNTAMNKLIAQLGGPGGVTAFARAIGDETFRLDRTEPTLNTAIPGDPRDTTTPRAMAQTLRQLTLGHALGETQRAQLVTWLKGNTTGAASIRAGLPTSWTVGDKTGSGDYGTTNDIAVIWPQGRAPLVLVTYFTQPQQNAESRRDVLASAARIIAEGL
P99, sequence (P05364 21-381): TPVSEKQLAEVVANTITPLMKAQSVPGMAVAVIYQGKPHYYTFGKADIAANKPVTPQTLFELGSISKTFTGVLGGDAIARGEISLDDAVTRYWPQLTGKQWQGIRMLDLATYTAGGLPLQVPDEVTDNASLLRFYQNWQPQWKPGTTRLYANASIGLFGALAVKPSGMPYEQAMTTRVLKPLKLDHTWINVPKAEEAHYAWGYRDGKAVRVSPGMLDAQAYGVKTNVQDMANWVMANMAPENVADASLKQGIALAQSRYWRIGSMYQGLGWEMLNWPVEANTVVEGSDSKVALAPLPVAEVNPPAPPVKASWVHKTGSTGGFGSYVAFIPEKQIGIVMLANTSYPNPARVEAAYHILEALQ

Regarding `CSCC(=O)N[C@H]1Cc2ccc(SC)c(C(=O)O)c2OB1O` [Compound 10, (R)-2-hydroxy-7-(methylthio)-3-(2-(methylthio)acetamido)-3,4-dihydro-2H-benzo[e][1,2]oxaborinine-8-carboxylic acid], the “TIG MPC4 TEM-10 ec302” value in the series with ec302 (TEM-10) [1] is “Y (key: X: MIC of less than 1 ng/mL; Y: MIC of 1 μg/mL to 10 μg/mL; Z: MIC of greater than 10 μg/mL)”. In addition, the “BPM MPC1 KP1004 KPC-2” value in the series on KP1004 (KPC-2) was “X (MIC of less than 1 μg/mL)”. Also, the “TIG MPC4 CTX-M-14 KP1005” value in the series on KP1005 (CTX-M-14) was “Y (MIC of 1 μg/mL to 10 μg/mL)”. The Ki was 1 to 10 nM on OXA-48; greater than 10 nM at P99; less than 1 nM on SHV-12; less than 1 nM at CTX-M-14; greater than 10 nM on KPC-2. Further, in the series with EC1010 (CMY-6) [2], the “TIG MPC4 CMY-6 EC1010” value is “X (MIC of less than 1 μg/mL)”. The “TIG MPC4 SHV-12 KP1010” value in the series with KP1010 (SHV-12) is recorded as “X (key: X: MIC of less than 1 μg/mL; Y: MIC of 1 μg/mL to 10 μg/mL; Z: MIC of greater than 10 μg/mL)”. Besides, in the series on KP1086 (OXA-48), the “BPM MPC1 OXA-48 KP1086” value is “Z (MIC of greater than 10 μg/mL)”. In addition, the “AZT MPC4 TEM-10 ec302” value in the series with ec302 (TEM-10) [3] is recorded as “Y (MIC of 1 μg/mL to 10 μg/mL)”. For the same compound, the “% Monomer in 1 mg/mL salt solution” value in [4] came to 87.5%. Moreover, in the series on ECL1002 [5], the “TIG MPC4 ECL1002” value is listed as “X (MIC of less than 1 μg/mL)”. The “AZT MPC4 ECL1002” value in the series with ECL1002 [6] is “Y (MIC of 1 μg/mL to 10 μg/mL)”. Moreover, the “TIG MPC4 CTX-M-15 KP1009” value with KP1009 (CTX-M-15) is recorded as “X (MIC of less than 1 μg/mL)”. In addition, the “AZT MPC4 CMY-6 EC1010” value with EC1010 (CMY-6) [7] is reported as “Y (key: X: MIC of less than 1 ng/mL; Y: MIC of 1 μg/mL to 10 μg/mL; Z: MIC of greater than 10 μg/mL)”. The “TIG MPC4 SHV-5 ec308” value with ec308 (SHV-5) was “X (key: X: MIC of less than 1 μg/mL; Y: MIC of 1 μg/mL to 10 μg/mL; Z: MIC of greater than 10 μg/mL)”.
Take `COc1ccc2c(c1C(=O)OCOC(=O)C(C)C)OB(O)[C@@H](NC(=O)CSC)C2` [Compound 42, 2-methylpropanoyloxymethyl(3R)-2-hydroxy-7-methoxy-3-[(2-methylsulfanylacetyl)amino]-3,4-dihydro-1,2-benzoxaborinine-8-carboxylate]: the “Measured Initial Conc. in Serum” value in [8] was determined as 24.2 µg/mL; in [9] it was 23.4 µg/mL. For the same compound, the “Conc. at t = 1 hr” value in series [8] worked out at 14.1 µg/mL; in series [9], 19.5 µg/mL. Also, the “Conc. at t = 3 hr” value in series [8] stood at 5.58 µg/mL; in series [10], 16.5 µg/mL.
For the compound `CSCC(=O)N[C@H]1Cc2ccc(F)c(C(=O)OCOC(=O)c3ccccc3)c2OB1O` [Compound 43, benzoyloxymethyl(3R)-7-fluoro-2-hydroxy-3-[(2-methylsulfanylacetyl)amino]-3,4-dihydro-1,2-benzoxaborinine-8-carboxylate], in series [8], the “Measured Initial Conc. in Serum” value was determined as 18.0 µg/mL, the “Conc. at t = 1 hr” value came to 11.7 µg/mL and the “Conc. at t = 3 hr” value worked out at 4.58 µg/mL. In [9], the “Measured Initial Conc. in Serum” value amounted to 18.9 µg/mL and the “Conc. at t = 1 hr” value came to 8.94 µg/mL. For the same compound, the “Conc. at t = 3 hr” value in series [10] is 3.16 µg/mL.
With `CSCC(=O)N[C@H]1Cc2ccc(SC)c(C(=O)OCOC(=O)C(C)C)c2OB1O` [Compound 44, 2-methylpropanoyloxymethyl(3R)-2-hydroxy-7-methylsulfanyl-3-[(2-methylsulfanylacetyl)amino]-3,4-dihydro-1,2-benzoxaborinine-8-carboxylate], the “Measured Initial Conc. in Serum” value in series [8] was 18.4 µg/mL; in [9], 18.6 µg/mL. For the same compound, the “Conc. at t = 1 hr” value was found to be 16.0 µg/mL in series [8] and 18.1 µg/mL in [9]. For the same compound, the “Conc. at t = 3 hr” value in series [8] worked out at 5.21 µg/mL; in series [10], 12.5 µg/mL.
On to `CSCC(=O)N[C@H]1Cc2cc(F)c(F)c(C(=O)OCOC(=O)C(C)C)c2OB1O` [Compound 45, 2-methylpropanoyloxymethyl(3R)-6,7-difluoro-2-hydroxy-3-[(2-methylsulfanylacetyl)amino]-3,4-dihydro-1,2-benzoxaborinine-8-carboxylate], for which, in [8], the “Measured Initial Conc. in Serum” value worked out at 18.6 µg/mL, the “Conc. at t = 1 hr” value was 8.85 µg/mL and the “Conc. at t = 3 hr” value turned out to be 0.42 µg/mL. In addition, in series [9], the “Measured Initial Conc. in Serum” value is 18.4 µg/mL and the “Conc. at t = 1 hr” value amounted to 4.83 µg/mL. Also, in series [10], the “Conc. at t = 3 hr” value turned out to be 0.58 µg/mL.
Take `CSCC(=O)N[C@H]1Cc2cc(Cl)c(F)c(C(=O)OCOC(=O)C(C)C)c2OB1O` [Compound 46, 2-methylpropanoyloxymethyl(3R)-6-chloro-7-fluoro-2-hydroxy-3-[(2-methylsulfanylacetyl)amino]-3,4-dihydro-1,2-benzoxaborinine-8-carboxylate]: in series [8], the “Measured Initial Conc. in Serum” value came to 18.7 µg/mL, the “Conc. at t = 1 hr” value was determined as 8.29 µg/mL and the “Conc. at t = 3 hr” value came out at 0.41 µg/mL. Further, in series [9], the “Measured Initial Conc. in Serum” value came to 19.1 µg/mL and the “Conc. at t = 1 hr” value turned out to be 6.22 µg/mL. Further, the “Conc. at t = 3 hr” value in [10] was found to be 1.01 µg/mL.

By Ki is commonly meant a measure of affinity in units of concentration, obtained from inhibition or displacement.
